The source of these data is US10226452B2, “Benzoxazolone derivatives as acid ceramidase inhibitors, and their use as medicaments” (FONDAZIONE ISTITUTO ITALIANO DI TECNOLOGIA, priority 2014, dated 2019).

Entries after “also recorded” stand apart in the source; their conditions may differ.

Data set [1] deals with MeWo cells. In words: ceramide levels in MeWo human melanoma cells. The class given is cell-based. The note with it: 25 μM. The protocol: Specifically, FIG. 1 evidences the effects of compound of Example 7 or vehicle (0.1% DMSO in DMEM) on AC activity and ceramide levels in A375 (left panel) or MeWo (right panel) human melanoma cell lines. (A-B) Intact cells were treated with compound of Example 7 (25 μM) or vehicle and AC activity was measured 30 minutes or 3 hours later in cell lysates. (B) Intact cells were exposed to compound of Example 7 (25 μM) for 2 hours or 24 hours and medium chain ceramides (C-D), long chain ceramides (E-F) and dihydroceramides (G-H) were quantified. Results are expressed as mean±s.e.m. (n=3). *p<0.05, **p<0.01, ***p<0.001 vs vehicle, two-way ANOVA followed by Dunnet.
Lipids were extracted from mouse tissue lysate with a chloroform/MeOH mixture (2:1 v/v, 3 mL) containing internal standards. The organic phase was collected, dried under nitrogen, and dissolved in chloroform/MeOH (1:3 v/v) for LC-MS analyses. Ceramides, sphingosine and sphinganine were analyzed by LC-MS/MS, using a Waters Acquity UPLC coupled with a Waters Xevo TQMS and interfaced with ESI. Separation was done on a Waters Acquity BEH C18 1.7 μm column (2.1×50 mm) at 60° C. A step gradient of 0.1% formic acid in acetonitrile/water (20:80 v/v) as solvent A and 0.1 formic acid in acetonitrile/isopropyl alcohol (20:80 v/v) as solvent B was applied at a flow rate of 0.4 mL/min. Detection was in the positive ionization mode. Capillary voltage was 3.5 kV and cone voltage was 25 V. The source temperature and desolvation temperatures were set at 120° C. and 600° C. respectively. […]
Tissue-derived ceramides were identified by comparison of their LC retention times and MS^2 fragmentation patterns with those of authentic standards (Avanti Polar Lipids). Extracted ion chromatograms were used to quantify myristoyl ceramide (C14:0, m/z 510.5>492.5>264.3), palmitoyl ceramide (C16:0, m/z 538.5>520.3>264.3), stearoyl ceramide (C18:0 m/z 566.5>548.3>264.3), lignoceroyl ceramide (C24:0 m/z 650.5>632.3>264.3), nervonoyl ceramide (C24:1 m/z 648.5>630.3>264.3) and using lauroyl ceramide standard (m/z 482.5>464.5>264.3). […]

The test system of data set [2] is SW403 cells. In words: sphingosine and ceramide levels in SW403 cells. The class given is cell-based, human. The note with it: 0.1-20 μM, 3 hours. The protocol: (A) Intact cells were treated with compound of Example 25 (0.1-20 μM) or vehicle and AC activity was measured 3 hours later in cell lysates. (B-E) Intact cells were exposed to compound of Example 25 (0.1-20 μM) for 3 hours and sphingosine/sphinganine (B), dihydroceramides (C), medium chain ceramides (D), long chain ceramides (E) were quantified. Results are expressed as mean±s.e.m. (n=3). *p<0.05, **p<0.01, ***p<0.001 vs vehicle, two-way ANOVA followed by Dunnet.
(A) Intact cells were treated with compound of Example 25 (20 μM) or vehicle and AC activity was measured 1 to 48 hours later in cell lysates. (B-E) Intact cells were exposed to compound of Example 25 (20 μM) and sphingosine (B), C16:0 dihydroceramide (C), C16:0 ceramide (D) were quantified. Results are expressed as mean±s.e.m. […]
Lipids were extracted from mouse tissue lysate with a chloroform/MeOH mixture (2:1 v/v, 3 mL) containing internal standards. […] Ceramides, sphingosine and sphinganine were analyzed by LC-MS/MS, using a Waters Acquity UPLC coupled with a Waters Xevo TQMS and interfaced with ESI. […]
Tissue-derived sphingosine and sphinganine were identified by comparison of their LC retention times and MS^2 fragmentation patterns with those of authentic standards (Avanti Polar Lipids). Extracted ion chromatograms were used to quantify sphingosine ([…], m/z 300.5>282.5) and sphinganine standard (C18:0, m/z 303>285). […]

Data set [3] deals with SW403 cells.
Description: Combinatory index calculation of cell viability data analyzed with CompuSyn Software. The resulting combination index (CI) offers quantitative definition for additive effect (CI=1), synergism (CI<1), and antagonism (CI>1) in drug combinations. Results are expressed as mean±s.e.m. (n=8-16) of three independent experiments.
Finally, the CellTiter-Glo® Luminescent Cell Viability Assay can be used to determine the number of viable cells in culture based on quantitation of the ATP present, which signals the presence of metabolically active cells. Briefly, a volume of CellTiter-Glo® Reagent equal to the volume of cell culture medium present in each well is added to 96-well plates after drug treatment. Contents are mixed for 2 minutes on an orbital shaker to induce cell lysis and plate was incubated at room temperature for 10 minutes to stabilize signal before reading luminescence.
The compounds were added to the cultures once every 24 hours over a period of 72 hours and the effects of the combined treatments were evaluated using CompuSyn Software.
The subject of data set [4] is MAG-hydrolyzing enzymes including MGL, HSL and EL. As to the kind of experiment: MAG-hydrolysing activity ex vivo in mice. Set-up: species or system mouse. The note with it: 10 mg-kg^−1 intraperitoneal, 3 h after injection. On the procedure: Compound of Example 25 was also tested for its ability to inhibit the hydrolytic degradation of diacylglycerols (DAG) and monoacylglycerols (MAG) in live mice. DAG and MAG hydrolysis is catalyzed by multiple serine lipases, including diacylglycerol lipase (DGL), monoacylglycerol lipase (MGL), hormone-sensitive lipase (HSL), and endothelial lipase. Thus, by monitoring the effects of compound of Example 25 on MAG-hydrolysing activity as well as DAG and MAG levels ex vivo, we can gain important insights as to the ability of the compound to interfere with those lipases in a physiologically relevant setting.
Specifically FIG. 8 evidences the effect of Example 25 or vehicle (DMSO) on MGL activity in brain, liver, fat and heart. MAG-hydrolysing activity was measured 3 h after intraperitoneal injection of compound of Example 25 (10 mg-kg-1). Results are expressed as mean±s.e.m. (n=5).
Tissue was homogenized in ice-cold Tris-HCl (50 mM, pH7.5, 10 vol) containing sucrose (0.32 M). Homogenates were centrifuged at 1,000×g for 10 min, and the supernatants (5 μg of protein) were incubated at 37° C. for 30 min in Tris.HCl (50 mM, pH 7.5, 0.5 mL) containing 10 μM oleoylglycerol (Sigma-Aldrich, St. Louis, Mo.). […] The residues were suspended in 100 μL of chloroform/methanol (1:3, v:v) and analyzed by LC-MS.

In the case of `O=C(NCCCCc1ccccc1)n1c(=O)oc2cc(Br)ccc21` [Example 7, 6-Bromo-2-oxo-N-(4-phenylbutyl)-1,3-benzoxazole-3-carboxamide], the “duration of effects on ceramide levels” value in data set [1] (MeWo cells (high AC expression)) is given as “recovered the initial phenotype after 24 hours”. For the same compound, the “di-hydro ceramide species levels” value in data set [1] (MeWo cells) was “significant increase in all di-hydro ceramide species analyzed”. The “ceramide species levels (cer(d18:1/14:0), cer(d18:1/16:0), cer(d18:1/18:0), cer(d18:1/24:1))” value in data set [1] (MeWo cells, LC/MS) is “intracellular accumulation of various ceramide species”.

For `O=C(NCCCCc1ccccc1)n1c(=O)oc2cc(-c3ccc(F)cc3)ccc21` [Example 25, 6-(4-Fluorophenyl)-2-oxo-N-(4-phenylbutyl)-1,3-benzoxazole-3-carboxamide], in data set [2], the “di-hydro ceramides and ceramide species levels” value is “intracellular accumulation of various di-hydro ceramides and ceramide species”; the sphingosine levels entry is listed as “parallel decrease in sphingosine levels”. In addition, the “interaction with 5-FU on SW403 cell viability (combinatory index analysis)” value in data set [3] is recorded as “acted synergistically with 5-FU”. In addition, the “MAG-hydrolysing activity in brain, liver, fat and heart” value in data set [4] was “did not cause inhibition of MAG-hydrolysing activity; also recorded: no inhibitory activity”.
